Each compound was assayed against T1, hemoglobin (Homo sapiens, UniProt P69905) (assay: Whole blood assay: oxygen equilibrium curves (Hemox Analyzer), change in p50). Details: whole blood 20% Hct (1 mM Hb), compound 1 mM, equimolar to hemoglobin, 1 h at 37° C.
T1 construct: from tissue; host or cells: whole blood (red blood cells)
Type: cell-based
Experimental: Oxygen equilibrium curves (OECs) were collected using a TCS Hemox Analyzer (TCS Scientific Company, New Hope, Pa., USA) to measure changes in the binding affinity of 02 to Hb. Whole blood was incubated for 1 h at 37° C. with the indicated compounds in an equimolar ratio of hemoglobin to compound and diluted into TES (2-[[1,3-dihydroxy-2-(hydroxymethyl)propan-2-yl]amino]ethanesulfonic acid)/saline buffer prior to measurements. For example, for whole blood at 20% hematocrit [Hct], which corresponds to 1 mM Hb, a compound concentration of 1 mM was used (for example, for compounds 1-53), and the incubated sample diluted 50- to 100-fold. The concentration for compound 54 was 1.7 mM and in equimolar ratio to hemoglobin. The diluted samples were then oxygenated with compressed air within the Hemox Analyzer, and the OECs were collected during deoxygenation as previously described (Guarnone et al., Haematologica, 1995, 80, 426-430). p50 (partial pressure of 02 at which Hb is 50% saturated with 02) values were obtained using a non-linear regression analysis. Percentage change in p50 [Δp50(%)] was calculated as follows: Δp50(%)=[(p50 of control)−p50 with compound)/p50 control]×100.

T1 sequence (P69905 2-142 limits assumed): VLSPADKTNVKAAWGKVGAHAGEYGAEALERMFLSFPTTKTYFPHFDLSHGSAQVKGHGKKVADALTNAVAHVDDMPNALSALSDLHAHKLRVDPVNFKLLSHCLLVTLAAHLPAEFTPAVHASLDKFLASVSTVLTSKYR
T1 sequence (P68871 2-147 partner limits assumed): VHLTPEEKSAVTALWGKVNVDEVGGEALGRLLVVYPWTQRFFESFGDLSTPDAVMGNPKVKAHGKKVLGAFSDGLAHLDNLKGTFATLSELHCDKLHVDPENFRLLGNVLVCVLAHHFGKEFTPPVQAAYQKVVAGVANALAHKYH

Row | SMILES | Delta-p50 (%)
1 | O=Cc1c(O)cccc1OC[C@@H]1CCCCCN1C(=O)c1cccc(O)c1C=O (stereo in doubt) [Compound 38, 2-{2-[(2-formyl-3-hydroxyphenoxy)methyl]azepane-1-carbonyl}-6-hydroxybenzaldehyde] | 33.8%
2 | CCOc1cccc(C(=O)N2CCOC[C@H]2COc2cccc(O)c2C=O)c1C=O [Compound 3, 2-ethoxy-6-[(3S)-3-[(2-formyl-3-hydroxyphenoxy)methyl]morpholine-4-carbonyl]benzaldehyde] | 73.6%
3 | O=Cc1c(O)cccc1OC[C@@H]1COCCN1C(=O)c1cccc(O)c1C=O [Compound 4, (S)-2-((4-(2-formyl-3-hydroxybenzoyl)morpholin-3-yl)methoxy)-6-hydroxybenzaldehyde] | 30.9%
4 | O=Cc1cccc(N2C(=O)CC[C@H]2COc2cccc(O)c2C=O)c1 [Compound 5, 2-{[(2S)-1-(3-formylphenyl)-5-oxopyrrolidin-2-yl]methoxy}-6-hydroxybenzaldehyde] | 79%
5 | O=Cc1cc(-c2ncccc2COc2cccc(O)c2C=O)ccn1 [Compound 9, 3-[(2-formyl-3-hydroxyphenoxy)methyl]-[2,4′-bipyridine]-2′-carbaldehyde] | 36.1%
6 | O=Cc1cccc(-c2ncccc2COc2cccc(O)c2C=O)n1 [Compound 10, 3′-[(2-formyl-3-hydroxyphenoxy)methyl]-[2,2′-bipyridine]-6-carbaldehyde] | 0.2%
7 | O=Cc1nc(-c2ncccc2COc2cccc(O)c2C=O)cs1 [Compound 12, 4-{3-[(2-formyl-3-hydroxyphenoxy)methyl]pyridin-2-yl}-1,3-thiazole-2-carbaldehyde] | 2.9%
8 | O=Cc1ccc(C(=O)N2CCCC[C@H]2COc2cccc(O)c2C=O)cc1 [Compound 13, 2-{[(2S)-1-(4-formylbenzoyl)piperidin-2-yl]methoxy}-6-hydroxybenzaldehyde] | 45.4%
9 | O=Cc1ncc(-c2ncccc2COc2cccc(O)c2C=O)o1 [Compound 14, 5-(3-((2-formyl-3-hydroxyphenoxy)methyl)pyridin-2-yl)oxazole-2-carbaldehyde] | 17.8%
10 | COc1ccc(C=O)c(C(=O)N2CCCC[C@H]2COc2cccc(O)c2C=O)c1 [Compound 15, 2-[(2S)-2-[(2-formyl-3-hydroxyphenoxy)methyl]piperidine-1-carbonyl]-4-methoxybenzaldehyde] | 19%
11 | O=Cc1ccc(Cl)cc1C(=O)N1CCCC[C@H]1COc1cccc(O)c1C=O [Compound 16, 4-chloro-2-[(2S)-2-[(2-formyl-3-hydroxyphenoxy)methyl]piperidine-1-carbonyl]benzaldehyde] | 39%
12 | O=Cc1ccccc1C(=O)N1CCCC[C@@H]1COc1cccc(O)c1C=O [Compound 17, 2-{[(2R)-1-(2-formylbenzoyl)piperidin-2-yl]methoxy}-6-hydroxybenzaldehyde] | 67%
13 | O=Cc1cc(-c2ccccc2COc2cccc(O)c2C=O)co1 [Compound 18, 4-{2-[(2-formyl-3-hydroxyphenoxy)methyl]phenyl}furan-2-carbaldehyde] | 17%
14 | O=Cc1nc(-c2ncccc2COc2cccc(O)c2C=O)ccc1O [Compound 19, 3′-[(2-formyl-3-hydroxyphenoxy)methyl]-5-hydroxy-[2,2′-bipyridine]-6-carbaldehyde] | 11%
15 | O=Cc1ccccc1C(=O)N1CCC[C@H]1COc1cccc(O)c1C=O [Compound 20, 2-{[(2S)-1-(2-formylbenzoyl)pyrrolidin-2-yl]methoxy}-6-hydroxybenzaldehyde] | 32%
16 | O=Cc1ccccc1N1C(=O)CC[C@H]1COc1cccc(O)c1C=O [Compound 21, 2-{[(2S)-1-(2-formylphenyl)-5-oxopyrrolidin-2-yl]methoxy}-6-hydroxybenzaldehyde] | 23%
17 | O=Cc1cccc(C(=O)N2CCC[C@H](COc3cccc(O)c3C=O)C2)c1 [Compound 22, 2-{[(3S)-1-(3-formylbenzoyl)piperidin-3-yl]methoxy}-6-hydroxybenzaldehyde] | 68.5%
18 | O=Cc1ccc(C(=O)N2CCC[C@H](COc3cccc(O)c3C=O)C2)cc1 [Compound 23, 2-{[(3S)-1-(4-formylbenzoyl)piperidin-3-yl]methoxy}-6-hydroxybenzaldehyde] | 20%
19 | O=Cc1cccc(-c2ccccc2COc2cccc(O)c2C=O)n1 [Compound 24, 6-{2-[(2-formyl-3-hydroxyphenoxy)methyl]phenyl}pyridine-2-carbaldehyde] | 11%
20 | O=Cc1ncccc1C(=O)N1CCCC[C@H]1COc1cccc(O)c1C=O [Compound 25, 3-[(2S)-2-[(2-formyl-3-hydroxyphenoxy)methyl]piperidine-1-carbonyl]pyridine-2-carbaldehyde] | 4%

Row | SMILES | Delta-p50 (%)
21 | O=Cc1ccccc1C(=O)N1CCC[C@@H](COc2cccc(O)c2C=O)C1 [Compound 26, 2-{[(3R)-1-(2-formylbenzoyl)piperidin-3-yl]methoxy}-6-hydroxybenzaldehyde] | 56%
22 | O=Cc1cccc(C(=O)N2CCC[C@@H](COc3cccc(O)c3C=O)C2)c1 [Compound 27, 2-{[(3R)-1-(3-formylbenzoyl)piperidin-3-yl]methoxy}-6-hydroxybenzaldehyde] | 74%
23 | O=Cc1ccc(C(=O)N2CCC[C@@H](COc3cccc(O)c3C=O)C2)cc1 [Compound 28, 2-{[(3R)-1-(4-formylbenzoyl)piperidin-3-yl]methoxy}-6-hydroxybenzaldehyde] | 45%
24 | O=Cc1ccccc1C(=O)N1CCC[C@H](COc2cccc(O)c2C=O)C1 [Compound 29, 2-{[(3S)-1-(2-formylbenzoyl)piperidin-3-yl]methoxy}-6-hydroxybenzaldehyde] | 82%
25 | O=Cc1c(O)cccc1OC[C@@H]1CCCN1C(=O)c1cccc(O)c1C=O [Compound 30, 2-[(2S)-2-[(2-formyl-3-hydroxyphenoxy)methyl]pyrrolidine-1-carbonyl]-6-hydroxybenzaldehyde] | 45%
26 | O=Cc1cccc(-c2cnccc2COc2cccc(O)c2C=O)n1 [Compound 31, 4′-[(2-formyl-3-hydroxyphenoxy)methyl]-[2,3′-bipyridine]-6-carbaldehyde] | 3.5%
27 | O=Cc1cccc(-c2cccnc2COc2cccc(O)c2C=O)n1 [Compound 32, 2′-[(2-formyl-3-hydroxyphenoxy)methyl]-[2,3′-bipyridine]-6-carbaldehyde] | 50%
28 | COc1cccc(C(=O)N2CCCC[C@H]2COc2cccc(O)c2C=O)c1C=O [Compound 33, 2-[(2S)-2-[(2-formyl-3-hydroxyphenoxy)methyl]piperidine-1-carbonyl]-6-methoxybenzaldehyde] | 84%
29 | Cc1cccc(C(=O)N2CCCC[C@H]2COc2cccc(O)c2C=O)c1C=O [Compound 34, 2-[(2S)-2-[(2-formyl-3-hydroxyphenoxy)methyl]piperidine-1-carbonyl]-6-methylbenzaldehyde] | 78%
30 | O=Cc1ccc(F)cc1C(=O)N1CCCC[C@H]1COc1cccc(O)c1C=O [Compound 35, 4-fluoro-2-[(2S)-2-[(2-formyl-3-hydroxyphenoxy)methyl]piperidine-1-carbonyl]benzaldehyde] | 70%
31 | O=Cc1ccccc1C(=O)N1CCOC[C@H]1COc1cccc(O)c1C=O [Compound 36, 2-{[(3S)-4-(2-formylbenzoyl)morpholin-3-yl]methoxy}-6-hydroxybenzaldehyde] | 77%
32 | O=Cc1ccccc1C(=O)N1CCCCC[C@H]1COc1cccc(O)c1C=O [Compound 37] | 31.5%
33 | CCOc1cccc(C(=O)N2CCCC[C@H]2COc2cccc(O)c2C=O)c1C=O [Compound 39, 2-ethoxy-6-[(2S)-2-[(2-formyl-3-hydroxyphenoxy)methyl]piperidine-1-carbonyl]benzaldehyde] | 79.5%
34 | CC(C)Oc1cccc(C(=O)N2CCCC[C@H]2COc2cccc(O)c2C=O)c1C=O [Compound 40, 2-[(2S)-2-[(2-formyl-3-hydroxyphenoxy)methyl]piperidine-1-carbonyl]-6-(propan-2-yloxy)benzaldehyde] | 72.5%
35 | Cc1ccc(-c2ncccc2COc2cccc(O)c2C=O)nc1C=O [Compound 41, 3′-[(2-formyl-3-hydroxyphenoxy)methyl]-5-methyl-[2,2′-bipyridine]-6-carbaldehyde] | 29.1%
36 | O=Cc1cccc(-c2ccncc2COc2cccc(O)c2C=O)n1 [Compound 42, 3′-[(2-formyl-3-hydroxyphenoxy)methyl]-[2,4′-bipyridine]-6-carbaldehyde] | 17.4%
37 | CC1(C)C[C@@H](COc2cccc(O)c2C=O)N(C(=O)c2ccccc2C=O)C1 [Compound 43, 2-{[(2S)-1-(2-formylbenzoyl)-4,4-dimethylpyrrolidin-2-yl]methoxy}-6-hydroxybenzaldehyde] | 70%
38 | O=Cc1c(O)cccc1C(=O)N1CCCC[C@H]1COc1ccc2c(c1C=O)CCO2 [Compound 44, 5-{[(2S)-1-(2-formyl-3-hydroxybenzoyl)piperidin-2-yl]methoxy}-2,3-dihydro-1-benzofuran-4-carbaldehyde] | 34.2%
39 | CCOc1ccc(-c2ncccc2COc2cccc(O)c2C=O)nc1C=O [Compound 45, 5-ethoxy-3′-[(2-formyl-3-hydroxyphenoxy)methyl]-[2,2′-bipyridine]-6-carbaldehyde] | 55.7%
